Type in all cases: functional, cell-based
One assay has as its system A549. In words: Anti-proliferative activity against human A549 cells incubated for 72 hrs by MTT assay. Conditions: A549, 72 h. (Tetrazolium dyes change colour on reduction, which living cells bring about.)
The test system of the next assay is Bel-7402. Briefly: Anti-proliferative activity against human Bel-7402 cells incubated for 72 hrs by MTT assay. Conditions: Bel-7402, 72 h.
The test system of a further assay is HCT-116. In words: Anti-proliferative activity against human HCT-116 cells incubated for 72 hrs by MTT assay. The following applies: HCT-116, 72 h.
For another assay, the system named is SW-620. In words: Anti-proliferative activity against human SW620 cells incubated for 72 hrs by MTT assay. The following applies: SW-620, 72 h.

The term IC50 denotes the concentration at which inhibition is half-maximal. Lower therefore signals higher potency.

As for `COc1ccc2[nH]cc(CCNC(=O)CCC(=O)OC3O[C@@H]4O[C@@]5(C)CC[C@@H]6[C@H](C)CC[C@@H]([C@H]3C)[C@@]46OO5)c2c1` (stereo partly drawn), the IC50 in the assay on A549 is more than 10 µM; in the assay with Bel-7402, more than 10 µM; in the assay with HCT-116 it was 6.64 µM; with SW-620 it was 7.28 µM.

As for `C[C@@H]1CC[C@H]2[C@@H](C)C(OC(=O)CCC(=O)NCCc3c[nH]c4ccccc34)O[C@@H]3O[C@@]4(C)CC[C@H]1[C@]32OO4` (stereo partly drawn), the IC50 is more than 10 µM in the assay with A549, more than 10 µM in the assay on Bel-7402, 6.74 µM in the assay on HCT-116 and 1.81 µM in the assay with SW-620.

For `C[C@@H]1CC[C@H]2[C@@H](C)C(OC(=O)c3ccc(CN4CCCCC4)cc3)O[C@@H]3O[C@@]4(C)CC[C@H]1[C@]32OO4` (stereo partly drawn), the IC50 in the assay on A549 was more than 10 µM; with Bel-7402, more than 10 µM; in the assay on HCT-116 it was 2.31 µM; with SW-620 it was 7.1 µM.

As for `C[C@@H]1CC[C@H]2[C@@H](C)C(OC(=O)CCC(=O)OCc3cn(-c4ccc(F)cc4)nn3)O[C@@H]3O[C@@]4(C)CC[C@H]1[C@]32OO4` (stereo partly drawn), the IC50 in the assay on A549 was 6.28 µM; in the assay on Bel-7402, more than 10 µM; in the assay on HCT-116, 2.21 µM; with SW-620 it was 2.33 µM.

For the compound `C[C@@H]1CC[C@H]2[C@@H](C)C(OC(=O)CCC(=O)OCc3cn(-c4ccccc4)nn3)O[C@@H]3O[C@@]4(C)CC[C@H]1[C@]32OO4` (stereo partly drawn), the IC50 with A549 was 6.51 µM; in the assay on Bel-7402, more than 10 µM; in the assay on HCT-116, 2.38 µM; with SW-620, 1.79 µM.

Turning to `C[C@@H]1CC[C@H]2[C@@H](C)C(OC(=O)c3cccc4ncccc34)O[C@@H]3O[C@@]4(C)CC[C@H]1[C@]32OO4` (stereo partly drawn), the IC50 was more than 10 µM in the assay on A549, more than 10 µM in the assay with Bel-7402, 3.73 µM with HCT-116 and 3.01 µM in the assay with SW-620.

`C[C@@H]1CC[C@H]2[C@@H](C)C(OC(=O)CCC(=O)OCc3cn(-c4ccc(Cl)cc4)nn3)O[C@@H]3O[C@@]4(C)CC[C@H]1[C@]32OO4` (stereo partly drawn): the IC50 is more than 10 µM in the assay with A549, more than 10 µM in the assay with Bel-7402, 3.03 µM with HCT-116 and 1.1 µM with SW-620.

Regarding `COc1ccc(-c2noc(CCC(=O)OC3O[C@@H]4O[C@@]5(C)CC[C@@H]6[C@H](C)CC[C@@H]([C@H]3C)[C@@]46OO5)n2)cc1` (stereo partly drawn), the IC50 in the assay on A549 is more than 10 µM; in the assay with Bel-7402, 4.96 µM; in the assay with HCT-116, 3.48 µM; with SW-620, more than 10 µM.

With `C[C@@H]1CC[C@H]2[C@@H](C)C(OC(=O)c3ccc4ncccc4c3)O[C@@H]3O[C@@]4(C)CC[C@H]1[C@]32OO4` (stereo partly drawn), the IC50 in the assay on A549 is more than 10 µM; in the assay on Bel-7402 it was more than 10 µM; in the assay with HCT-116, 3.22 µM; in the assay with SW-620 it was 3.02 µM.

Regarding `C[C@@H]1CC[C@H]2[C@@H](C)C(OC(=O)CCc3nc(-c4ccc(Cl)cc4)no3)O[C@@H]3O[C@@]4(C)CC[C@H]1[C@]32OO4` (stereo partly drawn), the IC50 in the assay with A549 is 6.79 µM; in the assay on Bel-7402, 7.05 µM; in the assay with HCT-116, 3.68 µM; in the assay on SW-620 it was more than 10 µM.

With `C[C@@H]1CC[C@H]2[C@@H](C)C(OC(=O)c3cn(-c4ccc(Br)cc4)nn3)O[C@@H]3O[C@@]4(C)CC[C@H]1[C@]32OO4` (stereo partly drawn), the IC50 is more than 10 µM with A549, more than 10 µM in the assay on Bel-7402, 3.87 µM in the assay with HCT-116 and 7.42 µM in the assay on SW-620.

On to `C[C@@H]1CC[C@H]2[C@@H](C)C(OC(=O)c3cc4ccccc4cn3)O[C@@H]3O[C@@]4(C)CC[C@H]1[C@]32OO4` (stereo partly drawn), for which the 50% inhibitory concentration (IC50) in the assay with A549 is more than 10 µM; with Bel-7402, more than 10 µM; in the assay with HCT-116, 5.51 µM; in the assay on SW-620, 4.81 µM.

In the case of `C[C@@H]1CC[C@H]2[C@@H](C)C(OC(=O)c3cnc4ccccc4c3)O[C@@H]3O[C@@]4(C)CC[C@H]1[C@]32OO4` (stereo partly drawn), the IC50 in the assay with A549 was more than 10 µM; in the assay on Bel-7402 it was 8.4 µM; in the assay with HCT-116 it was 2.62 µM; in the assay on SW-620, more than 10 µM.

With `C[C@@H]1CC[C@H]2[C@@H](C)C(OC(=O)c3cn(-c4ccc([N+](=O)[O-])cc4)nn3)O[C@@H]3O[C@@]4(C)CC[C@H]1[C@]32OO4` (stereo partly drawn), the IC50 in the assay on A549 is more than 10 µM; with Bel-7402, more than 10 µM; in the assay on HCT-116, more than 10 µM; with SW-620 it was 4.22 µM.

`CCCCCCCNC(=O)OC1O[C@@H]2O[C@@]3(C)CC[C@@H]4[C@H](C)CC[C@@H]([C@H]1C)[C@@]24OO3` (stereo partly drawn): the 50% inhibitory concentration (IC50) with A549 was 8 µM; with Bel-7402 it was more than 10 µM; in the assay on HCT-116 it was 1.19 µM; in the assay with SW-620, 3.9 µM.

For the compound `C[C@@H]1CC[C@H]2[C@@H](C)C(OC(=O)c3ccc(Cn4cccn4)cc3)O[C@@H]3O[C@@]4(C)CC[C@H]1[C@]32OO4` (stereo partly drawn), the IC50 in the assay with A549 is 7.01 µM; in the assay on Bel-7402 it was more than 10 µM; with HCT-116, 2.31 µM; with SW-620, more than 10 µM.

As for `COc1ccc(-n2cc(C(=O)OC3O[C@@H]4O[C@@]5(C)CC[C@@H]6[C@H](C)CC[C@@H]([C@H]3C)[C@@]46OO5)nn2)cc1OC` (stereo partly drawn), the IC50 is more than 10 µM with A549, 8.62 µM in the assay on Bel-7402, 3.39 µM in the assay on HCT-116 and 9.61 µM in the assay with SW-620.

For `COc1ccc(-n2cc(C(=O)OC3O[C@@H]4O[C@@]5(C)CC[C@@H]6[C@H](C)CC[C@@H]([C@H]3C)[C@@]46OO5)nn2)cc1` (stereo partly drawn), the IC50 is more than 10 µM in the assay on A549, 8.7 µM in the assay with Bel-7402, 3.18 µM in the assay on HCT-116 and 8.4 µM with SW-620.

As to `C[C@@H]1CC[C@H]2[C@@H](C)C(OC(=O)c3ccc(Cn4cc(Cl)cn4)cc3)O[C@@H]3O[C@@]4(C)CC[C@H]1[C@]32OO4` (stereo partly drawn), the IC50 with A549 is 5.07 µM; with Bel-7402, more than 10 µM; in the assay on HCT-116, 2.6 µM; with SW-620 it was 5.17 µM.

`C[C@@H]1CC[C@H]2[C@@H](C)C(OC(=O)c3ccc(Cn4cncn4)cc3)O[C@@H]3O[C@@]4(C)CC[C@H]1[C@]32OO4` (stereo partly drawn): the half-maximal inhibitory concentration (IC50) in the assay with A549 was 7.19 µM; with Bel-7402 it was more than 10 µM; in the assay on HCT-116, 3.39 µM; in the assay on SW-620, 8.32 µM.

Turning to `CCCCCNC(=O)OC1O[C@@H]2O[C@@]3(C)CC[C@@H]4[C@H](C)CC[C@@H]([C@H]1C)[C@@]24OO3` (stereo partly drawn), the IC50 with A549 is 7.5 µM; with Bel-7402, more than 10 µM; in the assay with HCT-116 it was 1.82 µM; in the assay on SW-620 it was 1.42 µM.

Regarding `C[C@@H]1CC[C@H]2[C@@H](C)C(OC(=O)c3cn(-c4ccc(F)cc4)nn3)O[C@@H]3O[C@@]4(C)CC[C@H]1[C@]32OO4` (stereo partly drawn), the IC50 in the assay on A549 was more than 10 µM; with Bel-7402, more than 10 µM; with HCT-116, 3.38 µM; in the assay on SW-620, 9.51 µM.

Consider `C[C@@H]1CC[C@H]2[C@@H](C)C(OC(=O)c3ccc(Cn4cc(Br)cn4)cc3)O[C@@H]3O[C@@]4(C)CC[C@H]1[C@]32OO4` (stereo partly drawn), for which the IC50 is 4.9 µM with A549, 8.53 µM in the assay on Bel-7402, 1.9 µM in the assay on HCT-116 and more than 10 µM in the assay with SW-620.

For the compound `COc1ccc(-n2cc(COC(=O)CCC(=O)OC3O[C@@H]4O[C@@]5(C)CC[C@@H]6[C@H](C)CC[C@@H]([C@H]3C)[C@@]46OO5)nn2)cc1` (stereo partly drawn), the IC50 in the assay with A549 was 7.18 µM; in the assay with Bel-7402, more than 10 µM; with HCT-116 it was 2.78 µM; with SW-620, 1.59 µM.

Consider `C[C@@H]1CC[C@H]2[C@@H](C)C(OC(=O)CCc3nc(-c4ccccc4)no3)O[C@@H]3O[C@@]4(C)CC[C@H]1[C@]32OO4` (stereo partly drawn), for which the half-maximal inhibitory concentration (IC50) with A549 is 9.1 µM; in the assay on Bel-7402, 3.99 µM; with HCT-116, 4.35 µM; in the assay on SW-620, 7.9 µM.

`CCCCNC(=O)OC1O[C@@H]2O[C@@]3(C)CC[C@@H]4[C@H](C)CC[C@@H]([C@H]1C)[C@@]24OO3` (stereo partly drawn): the IC50 was more than 10 µM in the assay on A549, more than 10 µM with Bel-7402, 3.51 µM with HCT-116 and more than 10 µM in the assay with SW-620.

For `C[C@@H]1CC[C@H]2[C@@H](C)C(OC(=O)CCc3nc(-c4ccc(Cl)c(Cl)c4)no3)O[C@@H]3O[C@@]4(C)CC[C@H]1[C@]32OO4` (stereo partly drawn), the IC50 was 9.09 µM in the assay on A549, more than 10 µM in the assay with Bel-7402, 2.13 µM in the assay on HCT-116 and more than 10 µM in the assay on SW-620.

As for `COc1ccc(-n2cc(COC(=O)CCC(=O)OC3O[C@@H]4O[C@@]5(C)CC[C@@H]6[C@H](C)CC[C@@H]([C@H]3C)[C@@]46OO5)nn2)cc1OC` (stereo partly drawn), the IC50 in the assay with A549 was 8.03 µM; in the assay on Bel-7402 it was more than 10 µM; with HCT-116 it was 1.79 µM; with SW-620, 2.89 µM.

For the compound `C[C@@H]1CC[C@H]2[C@@H](C)C(OC(=O)CCc3nc(-c4ccc(F)cc4)no3)O[C@@H]3O[C@@]4(C)CC[C@H]1[C@]32OO4` (stereo partly drawn), the IC50 with A549 worked out at 6.55 µM; in the assay with Bel-7402 it was 5.07 µM; in the assay on HCT-116, 2.94 µM; in the assay on SW-620, 7.17 µM.

On to `C[C@@H]1CC[C@H]2[C@@H](C)C(OC(=O)c3cn(-c4ccccc4)nn3)O[C@@H]3O[C@@]4(C)CC[C@H]1[C@]32OO4` (stereo partly drawn), for which the IC50 in the assay with A549 was more than 10 µM; with Bel-7402, more than 10 µM; in the assay on HCT-116 it was 3.41 µM; in the assay on SW-620 it was 7.22 µM.

Turning to `C[C@@H]1CC[C@H]2[C@@H](C)C(OC(=O)c3cn(-c4ccc(Cl)cc4)nn3)O[C@@H]3O[C@@]4(C)CC[C@H]1[C@]32OO4` (stereo partly drawn), the concentration for half-maximal inhibition (IC50) in the assay with A549 was more than 10 µM; in the assay on Bel-7402 it was 9.24 µM; in the assay with HCT-116 it was 3.12 µM; in the assay on SW-620, 8.21 µM.

As for `C[C@@H]1CC[C@H]2[C@@H](C)C(OC(=O)c3ccc(Cn4ccc5ccc(F)cc54)cc3)O[C@@H]3O[C@@]4(C)CC[C@H]1[C@]32OO4` (stereo partly drawn), the IC50 is 0.89 µM in the assay on A549, more than 10 µM with Bel-7402, 0.47 µM in the assay with HCT-116 and 4.36 µM in the assay with SW-620.

Values taken from ChEMBL document CHEMBL6087402, “Design, synthesis, and in vitro and in vivo biological evaluation of dihydroartemisinin derivatives as potent anti-cancer agents with ferroptosis-inducing and apoptosis-activating properties” (Eur J Med Chem, 2025).
